Patent US20230323336A1, “HIGH-THROUGHPUT, DROPLET-BASED SINGLE CELL RNA SEQUENCING” (priority 2021, published 2023)
≈ marks a conversion by molar mass, not a printed value.

Assays:
[1] = test system: MGH66:PcspD:gfp sorted subpopulations; MGH66 over-expressing cspD; experiment: Persister assay (CFU over time under meropenem); type: cell-based, K. pneumoniae; settings: meropenem 2 µg/mL
Method: (§1) The cells for flow cytometry were prepared using the same scheme as the meropenem-treated sample for BacDrop. After treating with meropenem at 2 µg/mL for 30 minutes, cells were diluted into PBS at the final concentration of 10^6 cells/mL and immediately run through flow cytometer. For the flow cytometry including dead-cell staining, 10 µL propidium iodide (1 mg/mL) (Invitrogen, cat# P1304MP) was mixed with 1 mL PBS. Cells after treatment were then diluted in the staining buffer at the final concentration of 10^6 cells/mL, and incubated in the dark at room temperature for 15 minutes followed by running through flow cytometer. To sort GFP-low and GFP-high populations, cells were run through fluorescence-activated cell sorting (FACS). Applicants sorted ~10^6 cells into 2 mL LB without or with meropenem (2 µg/mL) from each population. A 50 µL aliquot from cells sorted in LB medium without antibiotics was immediately diluted and plated on LB agar plates without antibiotics. The colony forming unites (CFU) on LB agar plates were enumerated to calculate the survival rates. The rest of the cells was used to measure MICs using the standard microdilution protocol^29 or proceeded with the persister assay. For the persister assay, cells were cultured at 37° C. with shaking. At each time points, a 50 µL aliquot was taken, diluted and plated on LB agar plates without antibiotics. […]

MGH66 [2] = experiment: Killing kinetics of MGH66 treated with antibiotics (CFU); type: cell-based, K. pneumoniae; settings: MGH66, at 30 minutes
Method: At each time points, cells from meropenem treatment (green), Ciprofloxacin treatment (blue), Gentamicin treatment (purple), and the untreated samples were diluted and plated on LB agar plates without antibiotics. CFUs from each condition were normalized to the CFUs of the untreated samples at the same time points to calculate the killing rates for each time points. The experiment was repeated three times and the error bars are plotted as standard deviation.

[3] = test system: MGH66:PyhcN:gfp and MGH66:PcspD:gfp; experiment: Flow cytometry/FACS of GFP reporter strains with live/dead staining; type: cell-based, K. pneumoniae
Source text: (§2) Applicants amplified the promoter region of cspD or yhcN from MGH66 and ligated it into pUA139^26 using the BamHI and XhoI sites, resulting in pUA139-PcspD and pUA139-PyhcN. The construct was then transformed into E.coli DH5a and the plasmids were extracted and verified using Sanger sequencing. Electrocompetent cells of MGH66 was made as previously reported^22. The extracted plasmids were then transformed into MGH66 via electroporation, generating MGH66: PcspD:gfp and MGH66: PyhcN:gfp.
(§3) The cells for flow cytometry were prepared using the same scheme as the meropenem-treated sample for BacDrop. After treating with meropenem at 2 µg/mL for 30 minutes, cells were diluted into PBS at the final concentration of 10^6 cells/mL and immediately run through flow cytometer. For the flow cytometry including dead-cell staining, 10 µL propidium iodide (1 mg/mL) (Invitrogen, cat# P1304MP) was mixed with 1 mL PBS. Cells after treatment were then diluted in the staining buffer at the final concentration of 10^6 cells/mL, and incubated in the dark at room temperature for 15 minutes followed by running through flow cytometer. To sort GFP-low and GFP-high populations, cells were run through fluorescence-activated cell sorting (FACS). Applicants sorted ~10^6 cells into 2 mL LB without or with meropenem (2 µg/mL) from each population. A 50 µL aliquot from cells sorted in LB medium without antibiotics was immediately diluted and plated on LB agar plates without antibiotics. The colony forming unites (CFU) on LB agar plates were enumerated to calculate the survival rates. The rest of the cells was used to measure MICs using the standard microdilution protocol^29 or proceeded with the persister assay. For the persister assay, cells were cultured at 37° C. with shaking. At each time points, a 50 µL aliquot was taken, diluted and plated on LB agar plates without antibiotics. Three replicates were performed in each experiment.

MGH66 [4] = experiment: MIC by standard microdilution, strain MGH66; type: cell-based, K. pneumoniae; settings: for MIC: Klebsiella pneumoniae
Method: as §3

K. pneumoniae MGH66 [5] = experiment: Bulk RNA-seq of antibiotic-treated MGH66; type: cell-based; settings: MGH66, OD600 ~0.2, 30 minutes treatment
Method: (§4) K.pneumoniae, E.coli, and P. aeruginosa were cultured in Luria-Bertani (LB) medium or Mueller-Hinton Broth (MHB) with shaking at 37° C.E.faecium was cultured in Todd-Hewitt broth (THB) with shaking at 37° C. For the GFP experiment, E.coli strains expressing gfp driven by different promoters were cultured separately in LB at 37° C. Early exponential growth phase cells (OD600 ~0.2) were collected and fixed immediately. For the antibiotic treatment experiment, K.pneumoniae clinical isolate MGH66 was cultured in MHB at 37° C. until early exponential phase. Then the culture was diluted to OD600 0.05 in MHB. After growing for two doublings (~40 min, OD600 ~0.2), the cultures were split into four equal volume cultures. One culture was left untreated, while the other three were treated with relevant antibiotic at breakpoint concentrations set by the Clinical and Laboratory Standards Institute (CLSI): 2 µg/mL for meropenem, 1 µg/mL for ciprofloxacin and 4 µg/mL for gentamicin. After 30 min, 7 mL of cells were collected from each of these cultures, and immediately proceeded with the cell fixation protocol. For the bulk RNA-seq experiments, samples were collected using the same treatment schemes, and three biological replicates were included in each condition. For the BIDMC35 experiment, BIDMC35 was cultured in LB medium at 37° C. until early exponential phase (OD600 ~0.2). 7 mL cells were then collected and immediately proceed with the cell fixation protocol.
To construct sequencing libraries from bacterial cultures, cell pellets collected from 1 mL early exponential phase cultures were re-suspended in 500 µL TRIzol Reagents (ThermoFisher, CN 15596026) and frozen at -80 C for at least 20 min. Cells were then thawed and mixed with 250 µL of 0.1 mm diameter Zirconia/Silica beads (BioSpec Products), and lysed mechanically via bead-beating for 90 second at 10 m/sec on a FastPrep (MP Bio). After addition of 0.1 mL chloroform, each sample tube was mixed thoroughly by inversion, incubated for 3 minutes at room temperature, and centrifuged at 12,000 xg for 15 minutes at 4° C. […]

K. pneumoniae MGH66 [6] = type: cell-based
Method: as §4
All reagents (Table 5) for cell fixation and permeabilization were kept ice-cold. […] (Digital Platform Rocker Shaker, VWR). […] Subsequent centrifugations were carried out at 7000 × g for 5 minutes at 4° C. […] Cells were centrifuged and resuspended in 700 µL50% Ethanol in PBS-RI. Cells were then washed twice with PBS-RI. After the second wash, cells were resuspended in 1 mL100 mM Tris-HCL (pH 7.5) supplemented with 0.1 U/uL NxGen RNase inhibitor.
Insufficient permeabilization may result in inefficient rRNA depletion and gDNA removal. For 1 permeabilization reaction, up to 40 million cells were centrifuged and resuspended in 250 µL0.04% Tween-20 in 1x PBS. If more cells are desired, multiple parallel reactions can be set up. Immediately following a 3-minute incubation on ice, 1 mL cold PBS-RI was added, and cells were spun down and resuspended in 200 µL lysozyme mix (100 mM Tris (pH 8.0), 50 mM EDTA pH 8.0, 0.25 U/µL NxGen RNase Inhibitor, 2.5 mg/mL lysozyme). Cells were then incubated at 37° C. for 15 minutes. After the incubation, 1 mL PBS-RI was added and cells were washed twice with 175 µL PBS-RI. After the second wash, cells were resuspended in 150 µL PBS (without RNase inhibitor added) and cell concentrations were measured.
Immediately after cell permeabilization, up to 40 million cells were centrifuged and resuspended in 11 µL nuclease-free H2O. 2 µL NEBNext Bacterial rRNA depletion solution and 2 µL Probe Hybridization Buffer (NEB, CN E7850) were mixed with cells on ice. The hybridization was conducted per the following (lid temperature set to 55° C.): 50° C. for 2 minutes, ramp down to 22° C. at 0.1° C. /second, and hold at 22° C. for 5 minutes. Probe hybridization was immediately followed by RNase H digestion by mixing the probe-hybridized cells with 2 µL RNase H reaction buffer, 2 µL Thermostable RNase H (NEB, CN E7850), and 1 µL nuclease-free H2O, followed by a 30-minute incubation at 50° C. (lid temperature set to 55° C.). […] The reaction was incubated at room temperature for 30 minutes, and the DNase treatment was stopped by adding 1 µL Stop Solution (50 mM EDTA) and incubating at 50° C. for 10 minutes. After the incubation, cells were centrifuged and washed twice with 100 µL PBS-RI. After the second wash, cells were resuspended in 20 µL0.5x PBS supplemented with 1 U/µL SUPERase-In RNase inhibitor and used immediately for in-cell reverse transcription.

BIDMC35 = experiment: MIC by standard microdilution, strain BIDMC35; type: cell-based, K. pneumoniae; settings: for MIC: Klebsiella pneumoniae
Method: as §3

UCI38 = experiment: MIC by standard microdilution, strain UCI38; type: cell-based, K. pneumoniae; settings: for MIC: Klebsiella pneumoniae
Method: as §3

MGH66:pBA D: cspD = experiment: MIC by standard microdilution, strain MGH66:pBAD:cspD; type: cell-based, K. pneumoniae; settings: cspD induced with 1% arabinose
Method: as §1

MGH66 [7] = experiment: RNA FISH of meropenem-treated MGH66; type: cell-based, K. pneumoniae; settings: meropenem-treated MGH66, 20 fields of view
Method: RNA FISH probes were designed using Design Probes tool of DECIPHER^32. 3 - 5 probes were designed for each target gene (Table 11). Probes were synthesized at Integrated DNA technologies and labeled with either Cy3 or Alex488 dye at the 5′. Probes of the same gene were pooled together and diluted into 10 µM stocks. Meropenem-treated MGH66 cells were fixed and permeabilized using the same protocol as the cell fixation and permeabilization steps in BacDrop. The hybridization was carried out in 40% hybridization buffer at 50° C. overnight and the following washing steps of washing were performed as described previously^33. Cells were imaged using the DeltaVision widefield deconvolution imaging system with a 60x objective. ImageJ was used for image data analysis and cell quantification.

E. coli 10ß = experiment: MIC by standard microdilution, strain E. coli 10ß; type: cell-based
Method: as §1

MGH66: PyhcN:gfp = experiment: MIC by standard microdilution, reporter strain MGH66: PyhcN:gfp; type: cell-based, K. pneumoniae
Source text: as §2
(§5) The cells for flow cytometry were prepared using the same scheme as the meropenem-treated sample for BacDrop. After treating with meropenem at 2 µg/mL for 30 minutes, cells were diluted into PBS at the final concentration of 10^6 cells/mL and immediately run through flow cytometer. For the flow cytometry including dead-cell staining, 10 µL propidium iodide (1 mg/mL) (Invitrogen, cat# P1304MP) was mixed with 1 mL PBS. Cells after treatment were then diluted in the staining buffer at the final concentration of 10^6 cells/mL, and incubated in the dark at room temperature for 15 minutes followed by running through flow cytometer. To sort GFP-low and GFP-high populations, cells were run through fluorescence-activated cell sorting (FACS). Applicants sorted ~10^6 cells into 2 mL LB without or with meropenem (2 µg/mL) from each population. […]

MGH66: PcpsD:gfp = experiment: MIC by standard microdilution, reporter strain MGH66: PcpsD:gfp; type: cell-based, K. pneumoniae
Source text: as §2, §5

[8] = 30 minutes of meropenem treatment
[9] = meropenem-treated MGH66, 2 µg/mL, 30 min

C[C@@H](O)[C@H]1C(=O)N2C(C(=O)O)=C(S[C@@H]3CN[C@H](C(=O)N(C)C)C3)[C@H](C)[C@H]12 [Meropenem, meropenem]
persister cells in MGH66 over-expressing cspD versus without induction ([1]; 1% arabinose induction): ~ 100 times
tolerant cells/persisters in GFP-high versus GFP-low sorted subpopulation ([1]; MGH66:PcspD:gfp sorted after 30-minute exposure): enriched for meropenem tolerant cells
impact on cell killing (MGH66 [2]): same impact on cell killing as ciprofloxacin and gentamicin
dead cells in the gated population (propidium iodide) [3, 8]: ~ 15.2%
live cells in the GFP-high population [3, 8]: about 94%
live cells in the GFP-low population [3, 8]: approximately 80%
heterogeneous expression of yhcN or cspD GFP reporters ([3]; MGH66:PyhcN:gfp, relative to untreated control): induced heterogeneous expression
MIC (MGH66 [4]): 0.03 µg/mL (≈ 0.0782 µM)
transcriptional response in bulk RNA-seq relative to untreated control (K. pneumoniae MGH66 [5]): minimal transcriptional responses
cells co-expressing cspD and rihC, BacDrop (K. pneumoniae MGH66 [6]; meropenem-treated MGH66): ~ 0.7%
cells co-expressing rseB + yidC, BacDrop (K. pneumoniae MGH66 [6]; meropenem-treated MGH66): ~ 8%
cells in DNA replication and cell division subpopulation (cluster 9) (K. pneumoniae MGH66 [6]; [9]): 1%
cells in cell wall/membrane synthesis subpopulation (cluster 7 and 11) (K. pneumoniae MGH66 [6]; [9]): 5.7%
cells in cspD-expressing subpopulation (cluster 10) (K. pneumoniae MGH66 [6]; [9]): 0.7%
cells in strongest stress response subpopulation (clusters 5 and 12) (K. pneumoniae MGH66 [6]; [9]): 8%
MIC (BIDMC35): > 32 µg/mL
MIC (UCI38): 0.03 µg/mL (≈ 0.0782 µM)
effect of cspD induction on MIC (MGH66:pBA D: cspD): did not affect
cells co-expressing cspD and rihC, RNA FISH (MGH66 [7]): ~ 0.85%
cells co-expressing rseB + yidC, RNA FISH (MGH66 [7]): ~ 12%
MIC (E. coli 10ß; Escherichia coli): < 0.03 µg/mL

gentamicin
MICs (MGH66 [4]): 1 µg/mL
transcriptional response in bulk RNA-seq relative to untreated control (K. pneumoniae MGH66 [5]): induced a group of heat shock chaperone proteins
heterogeneity of single-cell transcriptional response (K. pneumoniae MGH66 [6]; MGH66, 30 min treatment): did not detect obvious heterogeneity of response
treated cells belonging to the heat-shock response cluster (K. pneumoniae MGH66 [6]; MGH66, 30 min treatment, across both replicates): 66%-71%
MICs (MGH66: PyhcN:gfp): 1 µg/mL
MICs (BIDMC35): 0.5 µg/mL
MICs (UCI38): 2 µg/mL
MICs (MGH66: PcpsD:gfp): 1 µg/mL
MICs (E. coli 10ß): <0.03 µg/mL

O=C(O)c1cn(C2CC2)c2cc(N3CCNCC3)c(F)cc2c1=O [Ciprofloxacin, ciprofloxacin]
MIC (MGH66 [4]): 0.03 µg/mL (≈ 0.0905 µM)
transcriptional response in bulk RNA-seq relative to untreated control (K. pneumoniae MGH66 [5]): induced genes involved in SOS response
heterogeneity of single-cell transcriptional response (K. pneumoniae MGH66 [6]; MGH66, 30 min treatment): did not detect obvious heterogeneity of response
MIC (BIDMC35): > 32 µg/mL
MIC (UCI38): 32 µg/mL (≈ 96.6 µM)
